Measured values as given in patent US8536166B2, “Inhibitors of Burton's tyrosine kinase” (Roche Palo Alto LLC, priority 2008, dated 2013).

Test system: not given
Assay: not given
Settings: not given

| Compound | melting point [°C] |
| --- | --- |
| Cn1cc(-c2cccc(N3CCc4cc(C5(F)CC5)ccc4C3=O)c2CO)nc(Nc2ccc(C(=O)N3CCOCC3)cc2)c1=O [II-11, 6-(1-Fluoro-cyclopropyl)-2-(2-hydroxymethyl-3-{4-methyl-6-[4-(morpholine-4-carbonyl)-phenylamino]-5-oxo-4,5-dihydro-pyrazin-2-yl}-phenyl)-3,4-dihydro-2H-isoquinolin-1-one] | 172 to 174 |
| Cn1cc(-c2cccc(N3CCc4cc(C5CC5)ccc4C3=O)c2CO)nc(Nc2ccc(C(=O)N3CCC(O)CC3)cc2)c1=O [II-12, 6-Cyclopropyl-2-(2-hydroxymethyl-3-{6-[4-(4-hydroxy-piperidine-1-carbonyl)-phenylamino]-4-methyl-5-oxo-4,5-dihydro-pyrazin-2-yl}-phenyl)-3,4-dihydro-2H-isoquinolin-1-one] | 171 to 173 |
| COC1CCN(C(=O)c2ccc(Nc3nc(-c4cccc(N5CCc6cc(C7CC7)ccc6C5=O)c4CO)cn(C)c3=O)cc2)CC1 [II-13, 6-Cyclopropyl-2-(2-hydroxymethyl-3-{6-[4-(4-methoxy-piperidine-1-carbonyl)-phenylamino]-4-methyl-5-oxo-4,5-dihydro-pyrazin-2-yl}-phenyl)-3,4-dihydro-2H-isoquinolin-1-one] | 146 to 148 |
| CN1CCN(C(=O)c2ccc(Nc3nc(-c4cccc(N5CCc6cc(C7CC7)ccc6C5=O)c4CO)cn(C)c3=O)cc2)CC1 [II-14, 6-Cyclopropyl-2-(2-hydroxymethyl-3-{4-methyl-6-[4-(4-methyl-piperazine-1-carbonyl)-phenylamino]-5-oxo-4,5-dihydro-pyrazin-2-yl}-phenyl)-3,4-dihydro-2H-isoquinolin-1-one] | 172 to 175 |
| CN(CCO)C(=O)c1ccc(Nc2nc(-c3cccc(N4CCc5cc(C6CC6)ccc5C4=O)c3CO)cn(C)c2=O)cc1 [II-15, 4-{6-[3-(6-Cyclopropyl-1-oxo-3,4-dihydro-1H-isoquinolin-2-yl)-2-hydroxymethyl-phenyl]-4-methyl-3-oxo-3,4-dihydro-pyrazin-2-ylamino}-N-(2-hydroxy-ethyl)-N-methyl-benzamide] | 115 to 117 |
| Cn1cc(-c2cccc(N3CCc4cc(C5CC5)ccc4C3=O)c2CO)nc(Nc2ccc(C(=O)N3CCN(CCO)CC3)cc2)c1=O [II-16, 6-Cyclopropyl-2-[3-(6-{4-[4-(2-hydroxy-ethyl)-piperazine-1-carbonyl]-phenylamino}-4-methyl-5-oxo-4,5-dihydro-pyrazin-2-yl)-2-hydroxymethyl-phenyl]-3,4-dihydro-2H-isoquinolin-1-one] | 175 to 180.1 |
| CC1CN(C(=O)c2ccc(Nc3nc(-c4cccc(N5CCc6cc(C7CC7)ccc6C5=O)c4CO)cn(C)c3=O)cc2)CC(C)O1 (centres unmarked) [II-17, 6-Cyclopropyl-2-(3-{6-[4-(2,6-dimethyl-morpholine-4-carbonyl)-phenylamino]-4-methyl-5-oxo-4,5-dihydro-pyrazin-2-yl}-2-hydroxymethyl-phenyl)-3,4-dihydro-2H-isoquinolin-1-one] | 173 to 175 |

The remaining lines, values ahead:

| melting point [°C] | Compound |
| --- | --- |
| 145 to 150 | CN(C)c1ccc2c(c1)CCN(c1cccc(-c3cn(C)c(=O)c(Nc4ccc5c(c4)OC(F)(F)O5)n3)c1CO)C2=O [II-1, 2-{3-[6-(2,2-Difluoro-benzo[1,3]dioxol-5-ylamino)-4-methyl-5-oxo-4,5-dihydro-pyrazin-2-yl]-2-hydroxymethyl-phenyl}-6-dimethylamino-3,4-dihydro-2H-isoquinolin-1-one] |
| 178 to 180 | Cn1cc(-c2cccc(N3CCc4cc(C5CC5)ccc4C3=O)c2CO)nc(Nc2ccc(C(=O)N3CCCC3)cc2)c1=O [II-10, 6-Cyclopropyl-2-(2-hydroxymethyl-3-{4-methyl-5-oxo-6-[4-(pyrrolidine-1-carbonyl)-phenylamino]-4,5-dihydro-pyrazin-2-yl}-phenyl)-3,4-dihydro-2H-isoquinolin-1-one] |
| 153 to 155 | CCN1CCN(C(=O)c2ccc(Nc3nc(-c4cccc(N5CCc6cc(C7CC7)ccc6C5=O)c4CO)cn(C)c3=O)cc2)CC1 [II-20, 6-Cyclopropyl-2-(3-{6-[4-(4-ethyl-piperazine-1-carbonyl)-phenylamino]-4-methyl-5-oxo-4,5-dihydro-pyrazin-2-yl}-2-hydroxymethyl-phenyl)-3,4-dihydro-2H-isoquinolin-1-one] |

Target: Btk enzyme (His-tagged, full-length) (Homo sapiens (Human), UniProt Q06187)
Sequence (Q06187 whole entry): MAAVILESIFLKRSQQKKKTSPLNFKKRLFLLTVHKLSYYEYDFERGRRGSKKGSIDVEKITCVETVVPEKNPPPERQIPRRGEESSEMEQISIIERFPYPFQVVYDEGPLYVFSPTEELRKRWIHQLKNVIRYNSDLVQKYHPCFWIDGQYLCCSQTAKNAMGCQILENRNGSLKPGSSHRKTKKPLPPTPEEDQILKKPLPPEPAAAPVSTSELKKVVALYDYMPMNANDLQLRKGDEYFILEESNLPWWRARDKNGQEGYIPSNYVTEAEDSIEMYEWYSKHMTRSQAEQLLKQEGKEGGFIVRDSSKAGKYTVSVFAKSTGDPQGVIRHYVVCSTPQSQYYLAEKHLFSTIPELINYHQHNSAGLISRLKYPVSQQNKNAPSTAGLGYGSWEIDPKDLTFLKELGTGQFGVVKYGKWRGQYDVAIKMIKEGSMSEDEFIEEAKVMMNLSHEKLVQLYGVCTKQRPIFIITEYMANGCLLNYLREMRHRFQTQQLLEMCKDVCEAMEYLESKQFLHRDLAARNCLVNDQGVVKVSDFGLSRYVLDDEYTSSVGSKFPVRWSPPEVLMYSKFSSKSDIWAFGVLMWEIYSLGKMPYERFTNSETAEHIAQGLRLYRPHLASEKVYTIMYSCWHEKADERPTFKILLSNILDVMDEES
Assay: Bruton's Tyrosine Kinase (Btk) Inhibition Assay
Format: biochemical
Settings: 33P filtration capture assay, 100 μM ATP, 30 μM biotinylated peptide substrate
Excerpt: The assay is a capture of radioactive ^33P phosphorylated product through filtration. The interactions of Btk, biotinylated SH2 peptide substrate (Src homology), and ATP lead to phosphorylation of the peptide substrate. Biotinylated product is bound streptavidin sepharose beads. All bound, radiolabeled products are detected by scintillation counter.
Plates assayed are 96-well polypropylene (Greiner) and 96-well 1.2 μm hydrophilic PVDF filter plates (Millipore). Concentrations reported here are final assay concentrations: 10-100 μM compounds in DMSO (Burdick and Jackson), 5-10 nM Btk enzyme (His-tagged, full-length), 30 μM peptide substrate (Biotin-Aca-AAAEEIYGEI-NH2), 100 μM ATP (Sigma), 8 mM imidazole (Sigma, pH 7.2), 8 mM glycerol-2-phosphate (Sigma), 200 μM EGTA (Roche Diagnostics), 1 mM MnCl2 (Sigma), 20 mM MgCl2 (Sigma), 0.1 mg/ml BSA (Sigma), 2 mM DTT (Sigma), 1 μCi ^33P ATP (Amersham), 20% streptavidin sepharose beads (Amersham), 50 mM EDTA (Gibco), 2 M NaCl (Gibco), 2 M NaCl w/1% phosphoric acid (Gibco), microscint-20 (Perkin Elmer).
IC50 determinations are calculated from 10 data points per compound utilizing data produced from a standard 96-well plate assay template. One control compound and seven unknown inhibitors were tested on each plate and each plate was run twice. Typically, compounds were diluted in half-log starting at 100 μM and ending at 3 nM. The control compound was staurosporine. Background was counted in the absence of peptide substrate. Total activity was determined in the presence of peptide substrate. The following protocol was used to determine Btk inhibition. • 1) Sample preparation: The test compounds were diluted at half-log increments in assay buffer (imidazole, glycerol-2-phosphate, EGTA, MnCl2, MgCl2, BSA). • 2) Bead preparation • a.) rinse beads by centrifuging at 500 g • b.) reconstitute the beads with PBS and EDTA to produce a 20% bead slurry • 3) Pre-incubate reaction mix without substrate (assay buffer, DTT, ATP, ^33P ATP) and mix with substrate (assay buffer, DTT, ATP, ^33P ATP, peptide substrate) 30° C. for 15 mm. • 4) To start assay, pre-incubate 10 μL Btk in enzyme buffer (imidazole, glycerol-2-phosphate, BSA) and 10 μL of test compounds for 10 min at RT. • 5) Add 30 μL reaction mixture without or with substrate to Btk and compounds. • 6) Incubate 50 μL total assay mix for 30 min at 30° C. • 7) Transfer 40 μL of assay to 150 μL bead slurry in filter plate to stop reaction. • 8) Wash filter plate after 30 min, with following steps • a. 3×250 μL NaCl • b. 3×250 μL NaCl containing 1% phosphoric acid • c. […]

| IC50 [nM] | Compound |
| --- | --- |
| 16 | Cn1cc(Nc2nc(-c3cccc(N4CCc5cc(C6CC6)ccc5C4=O)c3CO)cn(C)c2=O)cn1 [II-5, 6-Cyclopropyl-2-{2-hydroxymethyl-3-[4-methyl-6-(1-methyl-1H-pyrazol-4-ylamino)-5-oxo-4,5-dihydro-pyrazin-2-yl]-phenyl}-3,4-dihydro-2H-isoquinolin-1-one] |
| 15 | CN(C)C(=O)c1ccc(Nc2nc(-c3cccc(N4CCc5cc(C6CC6)ccc5C4=O)c3CO)cn(C)c2=O)cc1 [II-6, 4-{6-[3-(6-Cyclopropyl-1-oxo-3,4-dihydro-1H-isoquinolin-2-yl)-2-hydroxymethyl-phenyl]-4-methyl-3-oxo-3,4-dihydro-pyrazin-2-ylamino}-N,N-dimethyl-benzamide] |
| 10 | Cn1cc(-c2cccc(N3CCc4cc(C5(F)CC5)ccc4C3=O)c2CO)nc(Nc2ccc(C(=O)N3CCOCC3)cc2)c1=O [II-11, 6-(1-Fluoro-cyclopropyl)-2-(2-hydroxymethyl-3-{4-methyl-6-[4-(morpholine-4-carbonyl)-phenylamino]-5-oxo-4,5-dihydro-pyrazin-2-yl}-phenyl)-3,4-dihydro-2H-isoquinolin-1-one] |
| 10 | Cn1cc(-c2cccc(N3CCc4cc(C5CC5)ccc4C3=O)c2CO)nc(Nc2ccc(C(=O)N3CCC(O)CC3)cc2)c1=O [II-12, 6-Cyclopropyl-2-(2-hydroxymethyl-3-{6-[4-(4-hydroxy-piperidine-1-carbonyl)-phenylamino]-4-methyl-5-oxo-4,5-dihydro-pyrazin-2-yl}-phenyl)-3,4-dihydro-2H-isoquinolin-1-one] |
